Values joined by “and” are separate entries in the source; they are usually repeats but may differ in a detail not shown here. Equal entries are not always repeated. Structures can show the parent of a compound that is named as a salt.
How the values were obtained:
[1] = molecular target: human dopamine D1 receptor (Homo sapiens, UniProt P21728); experiment: Cyclic AMP accumulation in HEK cells stably expressing the human dopamine D1 receptor (cloned hD1); format: cell-based; conditions: normalized to maximal cyclic AMP accumulation with dopamine
Experimental: Cyclic AMP accumulation assay. Assays were performed on confluent monolayers of cells in 48-well plates. […] Cyclic AMP stimulation assays were performed on HEK D1-CRELuc or MCF7 cells by incubating the cells with ligands for 15 minutes at 37° C. […] All assays were performed in the presence of 500 μM isobutylmethylxanthine (IBMX) and terminated with ice cold 3% trichloroacetic acid.

α2C adrenergic receptor [2] = molecular target: T1, α2C adrenergic receptor (Homo sapiens, UniProt P18825); experiment: Inhibition of forskolin-stimulated cyclic AMP accumulation in HEK293 cells stably expressing the α2C receptor; format: cell-based; conditions: for EC50 / Intrinsic Activity (% forskolin), α2C Adrenergic: HEK-α2C cells; for EC50: 30 μM forskolin, 15 min at 37° C.; for Intrinsic Activity (% forskolin), α2C Adrenergic: inhibition of cyclic AMP stimulated by 30 μM forskolin
T1 construct: expressed in transfected cells; host or cells: HEK293 (HEK-α2C)
T1 sequence (P18825 1-462): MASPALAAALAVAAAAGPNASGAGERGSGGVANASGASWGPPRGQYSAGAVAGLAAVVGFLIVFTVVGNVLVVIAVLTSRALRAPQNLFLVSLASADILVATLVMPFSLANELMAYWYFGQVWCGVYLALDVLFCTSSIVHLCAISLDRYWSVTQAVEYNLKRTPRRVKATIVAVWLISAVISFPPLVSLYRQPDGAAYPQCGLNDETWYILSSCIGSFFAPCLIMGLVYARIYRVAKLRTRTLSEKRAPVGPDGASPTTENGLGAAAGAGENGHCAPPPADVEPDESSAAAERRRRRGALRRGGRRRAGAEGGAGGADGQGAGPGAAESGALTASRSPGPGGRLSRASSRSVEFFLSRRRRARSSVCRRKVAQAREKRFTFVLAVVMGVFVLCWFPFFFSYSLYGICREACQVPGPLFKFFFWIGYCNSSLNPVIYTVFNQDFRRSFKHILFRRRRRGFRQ
From the text: The data presented have been normalized to the maximal cyclic AMP accumulation observed in the presence of forskolin alone and are the mean±SEM of three independent experiments assayed in duplicate.
Briefly, HEK D1-CreLuc cells were created by a two step process. HEK293 cells were co-transfected with the pBabe Puro and pGL-CreLuc vectors. Puromycin resistant clones, which expressed the functional cyclic AMP response element-linked luciferase reporter gene, were selected. Next, HEK-CreLuc cells were stably transfected with pcDNA3.1 (+)-D1. Clones were assayed for D1 receptor function by measuring cyclic AMP accumulation and luciferase activity. HEK-α2C cells were constructed by stable transfection with pcDNA.3(+)-α2C. G418 resistant clones were selected and assayed for α2C function by measuring inhibition of forskolin-stimulated cyclic AMP accumulation.
(§1) Cell Culture. […] Cells were grown at 37° C. in a humidified incubator with 6% CO2.
(§2) Cyclic AMP accumulation assay. Assays were performed on confluent monolayers of cells in 48-well plates. […] Cyclic AMP stimulation assays were performed on HEK D1-CRELuc or MCF7 cells by incubating the cells with ligands for 15 minutes at 37° C. Cyclic AMP inhibition assays were performed on HEK-α2C cells in the presence 30 μM forskolin to stimulate cyclic AMP formation. All assays were performed in the presence of 500 μM isobutylmethylxanthine (IBMX) and terminated with ice cold 3% trichloroacetic acid.
(§3) Cyclic AMP binding assay. […] Briefly, cellular lysate (15-20 μL) was added to cyclic AMP binding buffer (100 mM Tris-HCl, pH 7.4, 100 mM NaCl, 5 mM EDTA) in assay tubes containing 1 nM final concentration [^3H]cyclic AMP and bovine adrenal gland cyclic AMP binding protein (100-150 μg in 500 μl binding buffer). The binding assay was incubated on ice at 4° C. for 2-4 hours and terminated by harvesting with ice cold wash buffer (10 mM Tris, 0.9% NaCl) using a 96-well Packard Filtermate cell harvester and Millipore Multiscreen Harvest Plates (Millipore, Billerica, Mass., USA). Packard Microscint O (40 μL) was added to each well after drying. Radioactivity was counted using a Packard Topcount scintillation counter. Standard curves ranging from 0.01 to 300 pmol of cyclic AMP were used to determine the concentration of cyclic AMP in each sample. Data analysis was performed on GraphPad Prism software.

[3] = molecular target: endogenous human D1-like dopamine receptor in MCF7 cells (Homo sapiens, UniProt P21728); conditions: for Intrinsic Activity (% dopamine), Endogenous hD1: normalized to maximal cyclic AMP accumulation with dopamine (FIG. 3A)
Experimental: The data presented in FIG. 2B are the mean±SEM of three independent experiments assayed in duplicate.
The data presented in FIGS. 3B-C are the mean±SEM of three independent experiments assayed in duplicate.
as §1, §2, §3

α2C adrenergic receptor [4] = molecular target: T1, α2C adrenergic receptor; experiment: NIMH-sponsored Psychoactive Drug Screening Program affinity screen; format: binding; conditions: NIMH PDSP screen
[5] = molecular target: native D1-like dopamine receptors in porcine striatal tissue (Sus scrofa, UniProt P50130); experiment: Porcine striatal cyclase assay (cyclic AMP stimulation in striatal homogenate); format: biochemical; conditions: read-out: intrinsic activity in porcine striatal tissue
Experimental: as §3
The homogenate was centrifuged at 1,000×g for 10 min at 4° C.

endogenous human D1-like dopamine receptor in MCF7 cells, sequence (P21728 whole entry): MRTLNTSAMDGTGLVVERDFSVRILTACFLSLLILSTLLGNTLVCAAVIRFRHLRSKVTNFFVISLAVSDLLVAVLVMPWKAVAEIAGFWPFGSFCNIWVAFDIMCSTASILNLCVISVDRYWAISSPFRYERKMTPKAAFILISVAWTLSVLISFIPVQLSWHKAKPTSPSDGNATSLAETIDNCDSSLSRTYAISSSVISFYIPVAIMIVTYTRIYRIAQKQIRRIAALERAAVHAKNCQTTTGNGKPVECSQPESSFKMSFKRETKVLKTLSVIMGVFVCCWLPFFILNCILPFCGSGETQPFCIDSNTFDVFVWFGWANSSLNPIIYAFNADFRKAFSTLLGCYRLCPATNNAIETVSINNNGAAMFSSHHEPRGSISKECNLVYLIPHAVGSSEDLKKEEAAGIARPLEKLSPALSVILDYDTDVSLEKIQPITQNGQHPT
human dopamine D1 receptor, sequence (P21728 whole entry): as above
native D1-like dopamine receptors in porcine striatal tissue, sequence (P50130 whole entry): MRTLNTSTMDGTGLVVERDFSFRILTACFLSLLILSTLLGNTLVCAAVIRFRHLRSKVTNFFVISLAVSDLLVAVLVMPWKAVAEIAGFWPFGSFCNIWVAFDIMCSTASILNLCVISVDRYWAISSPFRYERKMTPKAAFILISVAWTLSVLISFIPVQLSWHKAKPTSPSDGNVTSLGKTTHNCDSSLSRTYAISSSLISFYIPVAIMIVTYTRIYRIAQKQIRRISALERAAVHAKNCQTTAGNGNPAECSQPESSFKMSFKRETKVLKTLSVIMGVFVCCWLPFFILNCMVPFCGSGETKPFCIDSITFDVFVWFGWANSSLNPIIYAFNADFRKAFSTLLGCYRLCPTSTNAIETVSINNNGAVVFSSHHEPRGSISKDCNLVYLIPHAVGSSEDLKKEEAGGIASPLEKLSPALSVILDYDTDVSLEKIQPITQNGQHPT

Q: For `C1=NC2COc3cc4c(cc3C2c2ccccc21)OCO4` (stereo not drawn) [Example 5, 2,3-Methylenedioxy-6a,12b-dihydro-6H-chromeno[3,4-c]isoquinoline], which melting point is on record?
A: The melting point was 191 °C.

Q: With `Cl.c1ccc2c(c1)CN[C@@H]1COc3cc4c(cc3[C@@H]21)OCO4` as the compound, how does the melting point read?
A: Its melting point is 163 °C.

Q: For `Cl.Oc1cc2c(cc1O)[C@@H]1c3ccccc3CN[C@H]1CO2` [(−)-ODHX, (−)-(6aR,12bS)-2,3-Dihydroxy-6a,7,8,12b-tetrahydro-6H-chromeno[3,4-c]isoquinoline hydrochloride], which “Intrinsic Activity (% dopamine), Cloned hD1” value [1] is on record?
A: Its value is 85 ± 6 % dopamine.

Q: What about the EC50 (α2C adrenergic receptor [2]) of the same compound?
A: Its EC50 is 4.4 nM.

Q: What about the “Intrinsic Activity (% forskolin), α2C Adrenergic” value (shortened to “Intrinsic Activity (% forskolin)”) (α2C adrenergic receptor [2]) of the same compound?
A: The value was 69 ± 2 % forskolin.

Q: What about the “effect alone on cyclic AMP levels” value ([3]; 10 μM alone) of the same compound?
A: Its value is “significant increase in cyclic AMP levels”.

Q: And the “antagonism of dopamine- and (+)-ODHX-stimulated cyclic AMP accumulation” value ([3]; dose-response curves in presence of 10 μM (−)-ODHX (FIGS. 3B-C))?
A: Its value is “reduced the intrinsic activity and potency of both dopamine and (+)-ODHX”.

Q: Which melting point does the source give for `Br.Cc1ccc2c(c1)C1c3cc(O)c(O)cc3OCC1NC2` (stereo not drawn) here?
A: Its melting point is 195 to 200 °C (dec.).

Q: For `Cl.Oc1cc2c(cc1O)C1c3ccccc3CNC1CO2` (racemic) [(±)-ODHX, 2,3-Dihydroxy-6a,7,8,12b-tetrahydro-6H-chromeno[3,4-c]isoquinoline hydrochloride], which Ki (α2C adrenergic receptor [4]) is on record?
A: The Ki was about 2 nM.

Q: And the “Intrinsic Activity (% dopamine), Endogenous hD1” value [3]?
A: Its value is 80 ± 3 % dopamine.

Q: With `Cc1ccc2c(c1)C1c3cc4c(cc3OCC1NC2=O)OCO4` (stereo not drawn) [Example 16, 2,3-methylenedioxy-11-methyl-6a,7-dihydro-6H-12bH-chromeno[3,4-c]isoquinolin-8-one] as the compound, how does the melting point read?
A: The melting point was over 250 °C.

Q: With `Clc1cccc(Cl)c1N=C1NCCN1` [Clonidine, reference compound] as the compound, how does the “Intrinsic Activity (% forskolin)” value (α2C adrenergic receptor [2]) read?
A: Its value is 61 ± 5 % forskolin.

Q: Which melting point does the source give for `O=C1N[C@@H]2COc3cc4c(cc3[C@H]2c2ccsc21)OCO4` (racemic) [Example 23, (±)-Trans-9,10-methylenedioxy-5,5a,6,11b-tetrahydro-4H-chromeno[3,4-b]thieno[3,2-d]pyridin-4-one] here?
A: Its melting point is over 250 °C.

Q: With `Cl.c1ccc2c(c1)CN[C@H]1COc3cc4c(cc3[C@H]21)OCO4` as the compound, how does the melting point read?
A: Its melting point is 163 °C.

Q: Which Emax [5] does the source give for `Oc1cc2c(cc1O)[C@H]1c3ccccc3CN[C@@H]1CO2` [(+)-ODHX, (+)-(6aS,12bR)-2,3-Dihydroxy-6a,7,8,12b-tetrahydro-6H-chromeno[3,4-c]isoquinoline hydrochloride] here?
A: Its Emax is 115 ± 15%.

Q: What about the “Intrinsic Activity (% dopamine), Cloned hD1” value ([1]; hydrochloride) of the same compound?
A: Its value is 109±6 % dopamine.

Q: And the “intrinsic activity as share of the intrinsic activity of (−)-ODHX at α2C receptor” value (α2C adrenergic receptor [2])?
A: Its value is “ca. 50%”.

Q: And the EC50 (α2C adrenergic receptor [2])?
A: Its EC50 is 151 ± 25 nM.

Q: What about the “Intrinsic Activity (% forskolin)” value (α2C adrenergic receptor [2]; hydrochloride) of the same compound?
A: The value was 34±6 % forskolin and 34 ± 7 % forskolin.

Q: What about the “Intrinsic Activity (% dopamine), Endogenous hD1” value [3] of the same compound?
A: Its value is 131 ± 13 % dopamine.

Q: Which melting point does the source give for `c1ccc2c(c1)CNC1COc3cc4c(cc3C21)OCO4` (stereo not drawn) [Example 6, 2,3-Methylenedioxy-6a,7,8,12b-tetrahydro-6H-chromeno[3,4-c]isoquinoline] here?
A: The melting point was 188 °C.
